{"source": "paper PMC6830296", "about": "(Journal of Enzyme Inhibition and Medicinal Chemistry, 2019)", "key": {"BpsCAβ": {"molecular_target": "T1, BpsCAβ (Burkholderia pseudomallei, UniProt Q63Y17)", "T1 construct": "gene BPSL0372", "T1 sequence (Q63Y17 1-256)": "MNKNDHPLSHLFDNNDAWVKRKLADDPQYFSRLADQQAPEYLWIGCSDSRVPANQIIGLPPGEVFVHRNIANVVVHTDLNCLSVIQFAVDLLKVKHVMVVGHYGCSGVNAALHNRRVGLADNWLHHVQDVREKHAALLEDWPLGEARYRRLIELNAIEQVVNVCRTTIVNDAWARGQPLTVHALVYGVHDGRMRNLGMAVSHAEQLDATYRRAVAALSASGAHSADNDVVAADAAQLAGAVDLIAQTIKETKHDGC", "assay_type": "biochemical", "conditions": "read-out: KI (μM)^a / BpsCAβ"}, "FtuβCA": {"molecular_target": "T2, FtuβCA (Francisella tularensis, UniProt Q5NH77)", "T2 construct": "gene cynT", "T2 sequence (Q5NH77 1-228)": "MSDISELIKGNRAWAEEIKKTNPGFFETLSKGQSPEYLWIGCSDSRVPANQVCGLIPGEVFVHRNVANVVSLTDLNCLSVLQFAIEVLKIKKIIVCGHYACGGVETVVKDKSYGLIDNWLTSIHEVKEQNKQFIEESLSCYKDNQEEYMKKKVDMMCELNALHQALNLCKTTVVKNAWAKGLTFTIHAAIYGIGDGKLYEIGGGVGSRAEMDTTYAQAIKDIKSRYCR", "assay_type": "biochemical", "conditions": "read-out: KI (μM)^a / FtuβCA"}, "Can2": {"molecular_target": "T3, Can2 (Cryptococcus neoformans, UniProt Q3I4V7)", "T3 construct": "recombinant, obtained in-house", "T3 sequence (Q3I4V7 1-239)": "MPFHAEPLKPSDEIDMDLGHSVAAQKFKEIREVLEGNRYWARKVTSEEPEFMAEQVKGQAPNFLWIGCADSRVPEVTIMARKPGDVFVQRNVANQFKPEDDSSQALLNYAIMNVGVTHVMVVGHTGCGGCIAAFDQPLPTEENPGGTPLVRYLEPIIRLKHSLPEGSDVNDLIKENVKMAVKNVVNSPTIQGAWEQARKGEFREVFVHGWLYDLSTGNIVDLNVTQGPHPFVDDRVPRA", "assay_type": "biochemical", "conditions": "for Ki: read-out: KI (μM)^a / Can2"}, "LdcCA": {"molecular_target": "T4, LdcCA (Leishmania infantum, UniProt A4HSV2)", "T4 construct": "gene LINJ_06_0630", "T4 sequence (A4HSV2 1-306)": "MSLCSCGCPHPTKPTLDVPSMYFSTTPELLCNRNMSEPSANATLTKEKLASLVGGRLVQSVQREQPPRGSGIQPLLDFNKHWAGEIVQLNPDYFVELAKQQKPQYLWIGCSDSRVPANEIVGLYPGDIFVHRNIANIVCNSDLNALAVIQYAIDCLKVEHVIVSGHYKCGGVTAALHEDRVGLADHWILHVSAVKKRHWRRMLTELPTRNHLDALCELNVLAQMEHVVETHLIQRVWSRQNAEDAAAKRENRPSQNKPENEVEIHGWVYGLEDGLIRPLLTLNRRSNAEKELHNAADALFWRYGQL", "conditions": "read-out: KI (μM)^a / LdcCA; CO2 hydration, TRIS pH 8.3, 20 mM Na2SO4, 1 h preincubation at room temperature"}, "CgNce [1]": {"molecular_target": "T5, CgNce (Nakaseomyces glabratus, UniProt Q6FTL6)", "T5 construct": "gene NCE103", "T5 sequence (Q6FTL6 entry or part of it)": "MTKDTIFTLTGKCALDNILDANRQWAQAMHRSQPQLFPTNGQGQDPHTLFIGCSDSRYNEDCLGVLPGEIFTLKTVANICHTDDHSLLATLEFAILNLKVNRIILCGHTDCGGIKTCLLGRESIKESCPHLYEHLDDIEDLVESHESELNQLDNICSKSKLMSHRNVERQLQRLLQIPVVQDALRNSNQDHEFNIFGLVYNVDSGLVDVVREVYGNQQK", "conditions": "read-out: KI (μM)^a / CgNce; CO2 hydration, TRIS pH 8.3, 20 mM Na2SO4, 1 h preincubation at room temperature"}, "VChβ [2]": {"molecular_target": "T6, VChβ (Vibrio cholerae, UniProt Q9KUD6)", "T6 construct": "gene VC_0586", "T6 sequence (Q9KUD6 1-222)": "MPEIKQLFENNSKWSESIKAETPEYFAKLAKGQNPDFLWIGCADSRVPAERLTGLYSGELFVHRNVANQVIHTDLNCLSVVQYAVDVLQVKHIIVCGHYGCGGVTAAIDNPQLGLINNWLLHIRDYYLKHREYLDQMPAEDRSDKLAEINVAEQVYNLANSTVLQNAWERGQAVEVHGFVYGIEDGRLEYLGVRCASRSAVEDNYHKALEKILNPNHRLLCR", "conditions": "read-out: KI (μM)^a / VChβ; CO2 hydration, TRIS pH 8.3, 20 mM Na2SO4, 1 h preincubation at room temperature"}, "CgNce [3]": {"molecular_target": "T5, CgNce", "test": "biochemical"}, "VChβ [4]": {"molecular_target": "T6, VChβ", "test": "biochemical"}, "MgCA": {"molecular_target": "T7, MgCA (Malassezia globosa, UniProt A8Q1N3)", "T7 construct": "gene MGL_1814", "T7 sequence (A8Q1N3 1-241)": "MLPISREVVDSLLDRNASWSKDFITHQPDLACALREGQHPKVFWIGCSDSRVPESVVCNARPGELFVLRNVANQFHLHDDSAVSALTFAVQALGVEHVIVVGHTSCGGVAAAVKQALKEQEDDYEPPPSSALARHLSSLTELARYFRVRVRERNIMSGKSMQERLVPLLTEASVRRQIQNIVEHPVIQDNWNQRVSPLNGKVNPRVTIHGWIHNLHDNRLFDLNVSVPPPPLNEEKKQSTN", "test": "biochemical"}}, "note": "pKi: −log10 of the molar value. Like-named read-outs stand apart in the source and are kept apart here."}
{"smiles": "NP(N)(=O)c1ccccc1", "note": "[compound 2, phenylphosphonic diamide 2]", "values": [{"measurement": "Ki", "setting": "BpsCAβ", "result": 2.5, "unit": "µM"}, {"measurement": "Ki", "setting": "FtuβCA", "result": 10.3, "unit": "µM"}, {"measurement": "Ki", "setting": "Can2; CO2 hydration, TRIS pH 8.3, 20 mM Na2SO4, 1 h preincubation at room temperature", "result": 0.03, "unit": "µM"}, {"measurement": "Ki", "setting": "LdcCA", "result": 2.1, "unit": "µM"}, {"measurement": "Ki", "setting": "CgNce [1]", "result": 0.05, "unit": "µM"}, {"measurement": "Ki", "setting": "VChβ [2]", "result": 0.9, "unit": "µM"}]}
{"smiles": "NP(=O)(OCCCl)c1ccccc1", "note": "(centres unmarked) [compound 9, alkyl phosphonamidate 9]", "values": [{"measurement": "Ki", "setting": "BpsCAβ", "result": 32.7, "unit": "µM"}, {"measurement": "Ki", "setting": "FtuβCA", "result": 15.1, "unit": "µM"}, {"measurement": "pKi", "setting": "Can2", "result": 6.22}, {"measurement": "pKi", "setting": "CgNce [3]", "result": 5.74}, {"measurement": "pKi", "setting": "VChβ [4]", "result": 4.46}]}
{"smiles": "COP(N)(=O)c1ccccc1", "note": "(centres unmarked) [compound 3, methyl phosphonamidate 3]", "values": [{"measurement": "Ki", "setting": "BpsCAβ", "result": 2.1, "unit": "µM"}, {"measurement": "Ki", "setting": "FtuβCA", "result": 8.5, "unit": "µM"}, {"measurement": "Ki", "setting": "Can2", "result": 0.02, "unit": "µM"}, {"measurement": "Ki", "setting": "LdcCA", "result": 0.8, "unit": "µM"}, {"measurement": "pKi", "setting": "CgNce [3]", "result": 6.70}, {"measurement": "pKi", "setting": "VChβ [4]", "result": 6.30}]}
{"smiles": "CC(C)OP(N)(=O)c1ccccc1", "note": "(centres unmarked) [compound 6, isopropyl (6)]", "values": [{"measurement": "Ki", "setting": "BpsCAβ", "result": 5.8, "unit": "µM"}, {"measurement": "Ki", "setting": "FtuβCA", "result": 18.4, "unit": "µM"}, {"measurement": "Ki", "setting": "Can2", "result": 0.1, "unit": "µM"}, {"measurement": "Ki", "setting": "LdcCA", "result": 5.1, "unit": "µM"}, {"measurement": "pKi", "setting": "CgNce [3]", "result": 6.15}, {"measurement": "pKi", "setting": "VChβ [4]", "result": 5.14}]}
{"smiles": "C#CCOP(N)(=O)c1ccccc1", "note": "(centres unmarked) [compound 10, propargyl phosphonamidate 10]", "values": [{"measurement": "Ki", "setting": "BpsCAβ", "result": 18.9, "unit": "µM"}, {"measurement": "Ki", "setting": "FtuβCA", "result": 6.9, "unit": "µM"}, {"measurement": "Ki", "setting": "Can2", "result": 5.3, "unit": "µM"}, {"measurement": "Ki", "setting": "LdcCA", "result": 19.3, "unit": "µM"}, {"measurement": "pKi", "setting": "CgNce [3]", "result": 4.69}, {"measurement": "pKi", "setting": "MgCA", "result": 4.01}, {"measurement": "pKi", "setting": "VChβ [4]", "result": 4.68}]}
{"smiles": "CCOP(N)(=O)c1ccccc1", "note": "(centres unmarked) [compound 4, ethyl derivative 4]", "values": [{"measurement": "Ki", "setting": "BpsCAβ", "result": 4.6, "unit": "µM"}, {"measurement": "Ki", "setting": "Can2", "result": 0.05, "unit": "µM"}, {"measurement": "Ki", "setting": "LdcCA", "result": 3.5, "unit": "µM"}, {"measurement": "pKi", "setting": "CgNce [3]", "result": 6.10}, {"measurement": "pKi", "setting": "VChβ [4]", "result": 5.02}]}
{"smiles": "CCCOP(N)(=O)c1ccccc1", "note": "(centres unmarked) [compound 5, propyl (5)]", "values": [{"measurement": "Ki", "setting": "BpsCAβ", "result": 12.6, "unit": "µM"}, {"measurement": "Ki", "setting": "FtuβCA", "result": 35.6, "unit": "µM"}, {"measurement": "Ki", "setting": "Can2", "result": 0.9, "unit": "µM"}, {"measurement": "Ki", "setting": "LdcCA", "result": 6.8, "unit": "µM"}, {"measurement": "pKi", "setting": "CgNce [3]", "result": 5.89}, {"measurement": "pKi", "setting": "MgCA", "result": 4.10}, {"measurement": "pKi", "setting": "VChβ [4]", "result": 4.81}]}
{"smiles": "CCCCOP(N)(=O)c1ccccc1", "note": "(centres unmarked) [compound 7, alkyl phosphonamidate 7]", "values": [{"measurement": "Ki", "setting": "BpsCAβ", "result": 22.5, "unit": "µM"}, {"measurement": "Ki", "setting": "FtuβCA", "result": 42, "unit": "µM"}, {"measurement": "Ki", "setting": "Can2", "result": 2.2, "unit": "µM"}, {"measurement": "pKi", "setting": "CgNce [3]", "result": 5.28}, {"measurement": "pKi", "setting": "VChβ [4]", "result": 4.57}]}
